# Several values for one entry are separate records, joined by “and”; a condition that tells them apart may be missing. Identical values can stand only once.
# Assays:
# USP2 = target: T1, USP2 (Homo sapiens, UniProt O75604); test: USP2 IQF diubiquitin selectivity assay; format: biochemical; conditions: for USP2, normalised activity (Ext. 1a): two replicate columns
# T1 construct: His (N, cleaved yes); host or cells: Escherichia coli BL21(DE3)
# T1 sequence (O75604 258-605 limits assumed): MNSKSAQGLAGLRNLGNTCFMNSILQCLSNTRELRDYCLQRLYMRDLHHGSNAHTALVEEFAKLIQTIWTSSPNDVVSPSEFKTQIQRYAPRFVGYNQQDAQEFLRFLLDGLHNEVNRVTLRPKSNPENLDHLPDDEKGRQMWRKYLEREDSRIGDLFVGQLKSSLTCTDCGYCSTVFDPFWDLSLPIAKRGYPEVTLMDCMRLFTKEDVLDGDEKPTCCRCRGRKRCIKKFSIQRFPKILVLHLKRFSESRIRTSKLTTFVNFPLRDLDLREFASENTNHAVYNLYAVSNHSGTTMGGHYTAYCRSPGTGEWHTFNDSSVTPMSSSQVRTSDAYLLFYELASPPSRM
# Experimental: (§1) BRISC DUB activity was measured at room temperature using 1 nM BRISC and 500 nM IQF diubiquitin K63 substrate (LifeSensors, DU6303) in the presence of DMSO and compounds at 10 μM (final concentrations). Assays were performed in 384-well black flat-bottom low-flange plates (Corning, 35373) in buffer containing 50 mM HEPES–NaOH pH 7.0, 100 mM NaCl, 1 mg ml^−1 BSA, 1 mM DTT and 0.03% v/v Brij-35. Then, 10 μl of twofold concentrated enzyme stock was dispensed, followed by transfer of 200 nl of compounds (1 mM stock) using a 384-pin tool and a 15-min incubation at room temperature. Then, 10 μl of twofold concentrated substrate stock was added and the reaction was monitored by measuring fluorescence intensity (excitation, 540 nm; emission, 580 nm) after 20-min incubation at room temperature and ~50% of substrate was consumed. Orthogonal assays for verification of H20 and P12 hit compounds using USP2 (100 nM) and trypsin (125 nM) were performed in identical conditions.
# (§2) IQF assays were performed in DUB reaction buffer containing 50 mM HEPES–NaOH pH 7.0, 100 mM NaCl, 0.1 mg ml^−1 BSA, 1 mM DTT and 0.03% v/v Brij-35. […] The final concentration of BRISC WT, all BRISC mutants, HsBRISCΔLoop, MmBRISC and DrBRISCΔNΔC was 1 nM. Other enzymes were tested at the following concentrations: 5 nM ARISC (FL), 10 nM CfBRISCΔNΔC, 250 nM AMSH* (ref. [43]), 500 nM USP2 and 1 μM trypsin (Sigma, 9002-07-7). For Michaelis–Menten experiments, 1 nM BRISC with 0–1 μM IQF K63-linked diubiquitin substrate was used. Michaelis–Menten analyses and Lineweaver–Burk plots were calculated using GraphPad Prism (version 9.0).
# (§3) To assess enzymatic activity, BRISC complexes were diluted to concentrations between 1 nM and 50 nM. […] Then, 20-μl enzyme reactions were carried out in 384-well black flat-bottom low-flange plates (Corning, 35373). DUB activity was measured using IQF K63-linked diubiquitin (LifeSensors, DU6303) at 50 nM. Cleaved diubiquitin was monitored by measuring fluorescence intensity (excitation, 544 nm; emission, 575 nm; dichroic mirror, 560 nm). Fluorescence intensity was measured every minute for 30 min at 30 °C. Fluorescence intensity units were plotted against time to generate a linear reaction progress curve, where the initial velocity (V0) corresponds to the gradient of the curve (typically achieved within 15 min). IC50 values were calculated using the GraphPad Prism (version 9.0) built-in dose–response equation for inhibitor concentration versus response (variable slope).
# BRISC = target: T2, BRISC (Homo sapiens, UniProt P46736+Q15018+Q9NXR7); test: Compound library screening and hit validation (IQF diubiquitin, 1 nM BRISC); format: biochemical; conditions: for BRISC, normalised activity (Ext. 1a): two replicate columns
# T2 construct: made in house; host or cells: Spodoptera frugiperda (Sf9) insect cells, MultiBac
# Experimental: as §1, with “Assays” for “BRISC DUB activity was measured at room temperature using 1 nM BRISC and 500 nM IQF diubiquitin K63 substrate (LifeSensors, DU6303) in the presence of DMSO and compounds at 10 μM (final concentrations). Assays”
# trypsin = test: Trypsin IQF diubiquitin selectivity assay; format: biochemical; conditions: for TRYPSIN, normalised activity (Ext. 1a): two replicate columns
# Experimental: as §1, §2, §3
# [1] = system: ISRE in THP-1 cells (TLR3 agonist polyI:C); test: THP-1 ISRE luciferase reporter, polyI:C stimulation; format: cell-based, human; conditions: polyI:C 1 µg/mL, 0.4 μM, 16 h
# Experimental: (§4) THP-1 in vitro experiments
# (§5) THP-1-DualTM cells (InvivoGen), derived from a human monocytic cell line, isolated from a patient with acute monocytic leukaemia, were cultured as per manufacturer’s guidance. Cells were seeded at 1x10^6 cells/mL in RPMI1640 media containing 10% fetal bovine serum (FBS), 1% penicillin-streptomycin (PS) (Gibco Laboratories) with DMSO (0.1%) (control) or in media containing JMS-175- […]
# (§6) ng/mL) (Merck Life Science), ODN 2216 (1 µM) (Miltenyi Biotec), or Poly:IC (1 µg/mL) (InvivoGen).
# (§7) Tofacitinib (Cambridge Biosciences) at 0.4 µM was used for comparison against a known JAK inhibitor.
# (§8) Cells were centrifuged at 300 g for 5 minutes. Supernatant was removed and subjected to simultaneous study of the NF -κB pathway, by monitoring the activity of secreted alkaline phosphatase reporter (SEAP), and the IRF pathway, by assessing the activity o f a secreted Lucia luciferase using QUANTI - Blue ™ Solution and QUANTI -Luc™ 4 Lucia/Gaussia (InvivoGen), respectively, as per manufacturer’s instructions. Pelleted cells were used for FACS analysis using IFNα/β R1 APC-conjugated antibody or isotype control (Biotechne, FAB245A and IC002A), or unstained staining procedure with and without Zombie GreenTM (Biolegend). Samples were analysed using CytoFlex LX (Beckman) (50,000 live cells per condition). Median fluorescence intensity for APC channel gated on single cell live cells was analysed and compared as a percentage to control (no stimulation condition). […]
# [2] = system: NF-κB pathway in THP-1 cells; test: THP-1 NF-κB pathway SEAP reporter, lipopolysaccharide stimulation; format: cell-based, human; conditions: LPS + compound, three replicates
# Experimental: as §4, §5, §6, §7, §8
# [3] = system: IFNAR1 surface levels in THP-1 cells; test: THP-1 IFNAR1 surface levels (FACS); format: cell-based, human
# Experimental: as §4, §5, §6, §7, §8
# THP-1 cells = test: THP-1 live cell percentage; format: cell-based; conditions: male, human, 16 h, 0.4 µM
# Experimental: as §4, §5, §6, §7, §8
# [4] = system: ISRE in THP-1 cells (TLR9 agonist ODN 2216); test: THP-1 ISRE luciferase reporter, ODN 2216 stimulation; format: cell-based, human; conditions: ODN 2216 1 µM, 0.4 μM, 16 h
# Experimental: as §4, §5, §6, §7, §8
# [5] = system: IFN-stimulated response elements (ISRE) in THP-1 cells; test: THP-1 ISRE luciferase reporter, IFNα2 stimulation; format: cell-based, human
# Experimental: as §4, §5, §6, §7, §8
# [6] = log [compound (μM)] 0.1938, listed as P12
# [7] = log [compound (μM)] 0.4949, listed as P12
# [8] = log [compound (μM)] 0.7959, listed as P12
# [9] = log [compound (μM)] 1.0969, listed as P12
# [10] = log [compound (μM)] 1.3979, listed as P12
# [11] = log [compound (μM)] 1.6990, listed as P12
# [12] = log [compound (μM)] 2.0000, listed as P12
# [13] = log [compound (μM)] -0.1072, listed as P12
# [14] = log [compound (μM)] -0.4082, listed as P12
# [15] = log [compound (μM)] -0.7093, listed as P12
# [16] = log [compound (μM)] -1.0103, listed as P12
# [17] = log [compound (μM)] -2.0103, normalisation point
structure (smiles),measurement,setting,value
"Nc1ccc(C(=O)Nc2cccc(-c3nc(N4CCOCC4)c4oc5ncccc5c4n3)c2)cn1 [YM201636, reference compound]",inhibition of USP2,USP2; IQF K63 diubiquitin substrate,inhibited
same,"USP2, normalised activity (Ext. 1a)",USP2; [6],0.9446 and 0.9072
same,"USP2, normalised activity (Ext. 1a)",USP2; [7],0.7366 and 0.8095
same,"USP2, normalised activity (Ext. 1a)",USP2; [8],0.5989 and 0.5952
same,"USP2, normalised activity (Ext. 1a)",USP2; [9],0.4578 and 0.4777
same,"USP2, normalised activity (Ext. 1a)",USP2; [10],0.2821 and 0.3159
same,"USP2, normalised activity (Ext. 1a)",USP2; [11],0.1157 and 0.1340
same,"USP2, normalised activity (Ext. 1a)",USP2; [12],0.0697 and 0.0548
same,"USP2, normalised activity (Ext. 1a)",USP2; [13],0.9974 and 0.9861
same,"USP2, normalised activity (Ext. 1a)",USP2; [14],1.0145 and 0.9995
same,"USP2, normalised activity (Ext. 1a)",USP2; [15],1.0193 and 1.0736
same,"USP2, normalised activity (Ext. 1a)",USP2; [16],0.9978 and 1.0361
same,"USP2, normalised activity (Ext. 1a)",USP2; [17],1.0000
same,"inhibition of BRISC, hit validation dose response",BRISC; BRISC 1 nM,inhibited
same,"BRISC, normalised activity (Ext. 1a)",BRISC; [6],0.9184 and 0.9164
same,"BRISC, normalised activity (Ext. 1a)",BRISC; [7],0.8260 and 0.8472
same,"BRISC, normalised activity (Ext. 1a)",BRISC; [8],0.7220 and 0.6802
same,"BRISC, normalised activity (Ext. 1a)",BRISC; [9],0.5475 and 0.6138
same,"BRISC, normalised activity (Ext. 1a)",BRISC; [10],0.4196 and 0.4274
same,"BRISC, normalised activity (Ext. 1a)",BRISC; [11],0.2277 and 0.3017
same,"BRISC, normalised activity (Ext. 1a)",BRISC; [12],0.1348 and 0.1662
same,"BRISC, normalised activity (Ext. 1a)",BRISC; [13],0.9841 and 0.9959
same,"BRISC, normalised activity (Ext. 1a)",BRISC; [14],1.0145 and 0.9950
same,"BRISC, normalised activity (Ext. 1a)",BRISC; [15],0.9264 and 1.0022
same,"BRISC, normalised activity (Ext. 1a)",BRISC; [16],0.9725 and 0.9468
same,"BRISC, normalised activity (Ext. 1a)",BRISC; [17],1.0000
same,inhibition of trypsin,trypsin; IQF K63 diubiquitin substrate,inhibited
same,"TRYPSIN, normalised activity (Ext. 1a)",trypsin; [6],0.9684 and 0.9837
same,"TRYPSIN, normalised activity (Ext. 1a)",trypsin; [7],0.8434 and 0.8923
same,"TRYPSIN, normalised activity (Ext. 1a)",trypsin; [8],0.6993 and 0.7044
same,"TRYPSIN, normalised activity (Ext. 1a)",trypsin; [9],0.6731 and 0.7139
same,"TRYPSIN, normalised activity (Ext. 1a)",trypsin; [10],0.4990 and 0.5130
same,"TRYPSIN, normalised activity (Ext. 1a)",trypsin; [11],0.3403 and 0.4535
same,"TRYPSIN, normalised activity (Ext. 1a)",trypsin; [12],0.3318 and 0.3209
same,"TRYPSIN, normalised activity (Ext. 1a)",trypsin; [13],1.0347 and 0.9747
same,"TRYPSIN, normalised activity (Ext. 1a)",trypsin; [14],1.0259 and 0.9266
same,"TRYPSIN, normalised activity (Ext. 1a)",trypsin; [15],0.9472 and 0.9474
same,"TRYPSIN, normalised activity (Ext. 1a)",trypsin; [16],0.9224 and 0.9184
same,"TRYPSIN, normalised activity (Ext. 1a)",trypsin; [17],1.0000
"C[C@@H]1CCN(C(=O)CC#N)C[C@@H]1N(C)c1ncnc2[nH]ccc12 [tofacitinib, reference compound]",ISRE luciferase signal in THP-1 supernatant,[1],not reduced
same,ISRE luciferase signal in THP-1 supernatant,[1]; listed as Tofacitinib,199.667 and 316.333 and 317.333
same,NF-κB SEAP reporter signal,[2],1.232 and 1.181 and 1.209
same,IFNAR1 surface levels (Fig. 5h),"[3]; IFN + compound, No IFN = 100",59.2689 and 88.3889 and 79.9066
same,IFNAR1 surface levels,"[3]; THP-1, hIFNα2 25 ng/ml, 0.4 μM, 16 h",no significant reduction
same,percentage of live cells,THP-1 cells,98.18%
same,ISRE luciferase signal in THP-1 supernatant,[4],not reduced
same,ISRE luciferase signal in THP-1 supernatant,[4]; listed as Tofacitinib,198.333 and 276 and 283.333
same,ISRE luciferase reporter signal (Fig. 5a),"[5]; IFN + compound, replicate values",1776.67 and 1732 and 1959.33 and 2178.33
same,ISRE relative expression,"[5]; hIFNα2 25 ng/ml, 0.4 μM, 16 h",potent effect

# — article PMC7617869, “Molecular glues that inhibit deubiquitylase activity and inflammatory signaling” (Nature Structural & Molecular Biology, 2025)
